In patent US12152012B2, “BRAG2 inhibitors and applications thereof” (CENTRE NATIONAL DE LA RECHERCHE SCIENTIFIQUE, priority 2018, dated 2024):

Tests used:
yeast ArfGEF Sec7p = target: T1, yeast ArfGEF Sec7p (Saccharomyces cerevisiae, UniProt P11075); assay: Yeast chemogenomic screen; type: cell-based
T1 construct: endogenous in cells; host or cells: yeast

Sec7 domain of BRAG2 = target: T2, Sec7 domain of BRAG2 (Homo sapiens, UniProt Q6DN90); assay: Nucleotide exchange fluorescence kinetics in solution, Sec7 domain with truncated Arf1; type: biochemical; conditions: 50 μM, no membranes
T2 construct: human BRAG2^Sec7 (390-594) and BRAG2^Sec7PH (390-811); made in house
Procedure: (§1) The effect of Bragsin1 on the GEF efficiency of representative human ArfGEFs was evaluated by fluorescence kinetics using highly purified recombinant Arf GTPases and ArfGEFs. In a first series of assays, the Sec7 domains of BIG1, a Golgi ArfGEF, and of ARNO, EFA6a and BRAG2, which function at the plasma membrane, were used. When tested in solution, Bragsin1 had no effect on the activation of Arf1 by any of these Sec7 domains (FIGS. 2a and 14). Separately, we reconstituted the activation of myristoylated Arf1 by the same ArfGEFs on liposomes using ArfGEF constructs that contain a membrane-binding domain (DCB-HUS domain for BIG1, PH domains for the other GEFs). […] BRAG2 activates several Arf isoforms, including the plasma membrane-located Arf6 isoform. […] Bragsin1 and Bragsin2 have the same IC50 towards BRAG2 ([…]) according to dose-response analysis, confirming that Bragsin1 and Bragsin2 can be used interchangeably (FIG. 2d). The specific inhibition of BRAG2 by Bragsin in vitro predicts that BRAG2 silencing by siRNA should yield the same phenotype as treatment by the small molecule. Silencing of BRAG2 induced the redistribution of TGN46 into tubular or punctate structures, which phenocopied the effects induced by Bragsin (FIGS. 2e, 17 and 18). […] Silencing of ARNO, which is located at the plasma membrane, had no effect on TGN46 distribution. Overexpression of BRAG2-mCherry rescued the dispersion of the TGN46 structure induced by Bragsin, which is consistent with the silencing experiments (FIG. 2f). Bragsin is a specific inhibitor of the ArfGEF BRAG2 in vitro and in cells according to these experiments. These oexperiments identify a mechanism of inhibition that requires the membrane to manifests itself. […]
(§2) Nucleotide exchange kinetics were monitored by tryptophan fluorescence with excitation/emission wavelengths of 292/340 nm using a Cary Eclipse fluorimeter (Varian) at 37° C. and under continuous stirring as described in ^50,51. For specificity assays, 50 μM of Bragsin1 or 0.25% DMSO were incubated for 2 min at 37° C. in HKM buffer (50 mM HEPES pH 7.4, 120 mM potassium acetate, 1 mM MgCl2 and 1 mM DTT) with either 1 μM of N-terminally truncated Arf-GDP and 100 nM of indicated Sec7 domain (in solution) or 0.4 μM of ^myrArf1 in the presence of 100 μM of liposomes and 2 to 100 nM of ArfGEFs as described in (Benabdi, S. et al. Biochemistry 56, 5125-5133 (2017) and Peurois, F. et al. Biochem J 474, 1259-1272 (2017). Nucleotide exchange rates (kobs) were determined from monoexponential fits and means are given as the percentage of control activity±SD. […]

Sec7 domain of BIG1 = target: T3, Sec7 domain of BIG1 (Homo sapiens, UniProt Q9Y6D6); assay: as above; type: biochemical; conditions: 50 μM, no membranes
T3 construct: BIG1^Sec7 (691-889), BIG1^DcbHusSec7 (2-888); made in house
T3 sequence (Q9Y6D6 691-889): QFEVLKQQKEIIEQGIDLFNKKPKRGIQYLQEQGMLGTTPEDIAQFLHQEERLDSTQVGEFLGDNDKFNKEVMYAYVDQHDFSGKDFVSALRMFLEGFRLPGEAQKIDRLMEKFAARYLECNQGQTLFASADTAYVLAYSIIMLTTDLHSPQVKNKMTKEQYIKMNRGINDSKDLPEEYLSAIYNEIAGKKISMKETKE
Procedure: as §1, §2

T1 sequence (P11075 whole entry): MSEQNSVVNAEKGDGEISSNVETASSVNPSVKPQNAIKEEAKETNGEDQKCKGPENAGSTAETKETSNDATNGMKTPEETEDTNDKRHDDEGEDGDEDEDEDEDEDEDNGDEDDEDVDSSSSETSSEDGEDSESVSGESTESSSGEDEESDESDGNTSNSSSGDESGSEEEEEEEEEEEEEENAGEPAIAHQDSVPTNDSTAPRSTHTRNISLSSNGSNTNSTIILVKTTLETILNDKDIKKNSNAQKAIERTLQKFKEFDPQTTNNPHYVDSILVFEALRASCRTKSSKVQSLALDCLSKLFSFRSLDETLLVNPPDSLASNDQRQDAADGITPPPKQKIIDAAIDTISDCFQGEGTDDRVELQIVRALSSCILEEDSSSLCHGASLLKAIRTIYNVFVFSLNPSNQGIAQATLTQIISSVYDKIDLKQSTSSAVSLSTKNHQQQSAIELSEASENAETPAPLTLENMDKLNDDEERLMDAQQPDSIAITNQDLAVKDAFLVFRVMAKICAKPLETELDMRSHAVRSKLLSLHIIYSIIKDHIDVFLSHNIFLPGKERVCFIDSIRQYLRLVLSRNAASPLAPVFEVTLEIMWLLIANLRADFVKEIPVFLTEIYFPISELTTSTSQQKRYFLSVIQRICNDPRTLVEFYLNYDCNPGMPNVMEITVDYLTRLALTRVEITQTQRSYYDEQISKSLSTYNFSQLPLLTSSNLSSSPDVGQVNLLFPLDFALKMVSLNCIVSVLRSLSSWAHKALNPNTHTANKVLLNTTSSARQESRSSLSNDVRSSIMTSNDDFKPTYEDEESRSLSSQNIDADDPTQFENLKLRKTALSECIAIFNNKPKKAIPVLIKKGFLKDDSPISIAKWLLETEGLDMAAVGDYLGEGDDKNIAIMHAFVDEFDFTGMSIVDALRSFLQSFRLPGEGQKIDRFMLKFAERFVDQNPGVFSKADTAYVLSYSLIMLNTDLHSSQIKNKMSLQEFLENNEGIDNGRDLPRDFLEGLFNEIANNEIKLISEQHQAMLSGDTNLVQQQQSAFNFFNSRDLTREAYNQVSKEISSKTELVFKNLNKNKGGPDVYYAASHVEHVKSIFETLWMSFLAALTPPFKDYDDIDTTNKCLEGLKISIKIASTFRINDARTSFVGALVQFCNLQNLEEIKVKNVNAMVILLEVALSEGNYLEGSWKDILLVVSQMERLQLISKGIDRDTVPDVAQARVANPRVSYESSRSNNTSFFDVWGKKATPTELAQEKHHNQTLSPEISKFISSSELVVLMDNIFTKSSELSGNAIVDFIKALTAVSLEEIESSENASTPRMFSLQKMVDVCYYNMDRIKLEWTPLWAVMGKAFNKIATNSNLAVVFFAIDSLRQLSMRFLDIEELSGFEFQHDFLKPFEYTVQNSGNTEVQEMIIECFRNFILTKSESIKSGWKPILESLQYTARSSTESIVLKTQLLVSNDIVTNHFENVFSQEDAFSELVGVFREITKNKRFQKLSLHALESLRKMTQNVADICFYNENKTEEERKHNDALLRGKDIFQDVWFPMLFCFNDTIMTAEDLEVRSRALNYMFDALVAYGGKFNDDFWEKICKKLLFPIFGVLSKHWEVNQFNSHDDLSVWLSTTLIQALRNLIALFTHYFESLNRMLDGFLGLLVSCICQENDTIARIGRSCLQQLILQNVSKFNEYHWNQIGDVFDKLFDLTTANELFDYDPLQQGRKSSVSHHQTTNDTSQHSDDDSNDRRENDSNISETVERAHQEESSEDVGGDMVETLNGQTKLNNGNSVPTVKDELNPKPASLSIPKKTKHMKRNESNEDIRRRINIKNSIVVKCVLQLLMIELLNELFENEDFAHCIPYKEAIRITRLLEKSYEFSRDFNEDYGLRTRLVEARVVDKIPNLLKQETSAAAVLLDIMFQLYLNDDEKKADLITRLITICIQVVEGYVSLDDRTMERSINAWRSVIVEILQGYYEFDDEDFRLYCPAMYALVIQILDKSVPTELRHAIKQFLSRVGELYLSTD
T2 sequence (Q6DN90 512-716): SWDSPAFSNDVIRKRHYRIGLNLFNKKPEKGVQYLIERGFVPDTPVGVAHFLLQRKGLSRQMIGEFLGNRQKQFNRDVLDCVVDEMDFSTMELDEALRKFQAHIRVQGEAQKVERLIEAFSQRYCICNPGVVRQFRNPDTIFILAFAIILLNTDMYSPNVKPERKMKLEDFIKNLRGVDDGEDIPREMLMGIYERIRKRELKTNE

Effect on function of yeast ArfGEF Sec7p (yeast ArfGEF Sec7p): perturbs the function | Effect on activation of Arf1 by Sec7 domain in solution (Sec7 domain of BRAG2): no effect | Effect on activation of Arf1 by Sec7 domain in solution (Sec7 domain of BIG1): no effect
Compound: Cc1ccc2oc(C(F)(F)F)cc(=O)c2c1[N+](=O)[O-] [Bragsin1, 6-methyl-5-nitro-2-(trifluoromethyl)-4H-chromen-4-one]
